# Test results: patent US20170314056A1, “METHOD OF USING NEAR INFRARED FLUORESCENT DYES FOR IMAGING AND TARGETING CANCERS” (priority 2010, published 2017)
# Entries after “also recorded” stand apart in the source; their conditions may differ. Where two headings read alike, the source gives them in different places.
# Experiments:
# [1] = for body weight: daily intraperitoneal injection, Balb/c mice
# Description: In control mice, the same volume of PBS was injected. The body weight and lethality of these mice were closely followed for 28 days.
# [2] = system: human cancer cells; assay: Uptake of NIR dyes by cultured human cancer cell lines (confocal NIR imaging); assay type: cell-based; settings: for uptake of dye by human cancer cell lines in culture: panel of prostate, breast, cervical, lung, liver, pancreatic, renal, bladder and leukemia lines, confocal microscope
# Description: Cells (1×10^4/well) were seeded on vitronectin-coated four-well chamber slides (Nalgen Nunc, Naperville, Ill.) and incubated with T-medium containing 5% FBS for 24 h. After the cells had attached to the chamber slides, the cells were washed with PBS (Phosphate Buffered Saline) and exposed to the cyanine dye at a concentration of 20 μM in T-medium. The slides were incubated at 37° C. for 30 min, washed twice with PBS to remove excess dyes, and cells were fixed with 10% formaldehyde at 4° C. The slides were then washed twice with PBS and covered with glass coverslips with an aqueous mounting medium (Sigma-Aldrich, St. Louis, Mo.). Images were recorded by confocal laser microscopy (Zeiss LSM 510 META, Germany) using a 633 nm excitation laser and 670-810 nm long pass filter, or a fluorescence microscope (Olympus 1×71; Olympus, Melville, N.Y.) equipped with a 75 W Xenon lamp and an Indo-Cyanine Green filter cube (excitation 750-800 nm; emission 820-860 nm) (Chroma, Rockingham, Vt.).
# Cells (1×10^4/well) were seeded on vitronectin-coated four-well chamber slides (Nalgen Nunc, Naperville, Ill.) and incubated with T-medium containing 5% FBS for 24 h. After the cells had attached to the chamber slides, the cells were washed with PBS (Phosphate Buffered Saline) and exposed to the cyanine dye at a concentration of 20 μM in medium. The slides were incubated at 37° C. for 30 min, washed twice with PBS to remove excess dyes, and fixed with 10% formaldehyde at 4° C. The slides were then washed twice with PBS and covered with glass coverslips with aqueous mounting medium (Sigma-Aldrich, St. Louis, Mo.). Images were recorded by confocal laser microscopy (Zeiss LSM 510 META, Germany) equipped with 633 nm excitation laser and 670-810 nm long pass filter.
# [3] = system: human tumor xenografts; assay: NIR imaging of human tumor xenografts in live mice; settings: for tumor imaging of subcutaneous xenografts: Kodak multimodal-imaging system; for dye uptake and signal in human xenograft implants at various sites: subcutaneous, orthotopic or intraosseous tumors, i.p. or i.v. dye; for duration of dye uptake and retention in tumors after dye administration: tumors in live mice
# Source text: […] After variable time of the dye injection, the mice were anesthetized and imaged by using the Kodak animal in vivo imaging system, which can obtain both the NIR signal and the X-ray picture and these images were merged. […] IR-783 uptake into metastatic human prostate tumors was studied in ARCaP model.
# Uptake and accumulation of cyanine dyes in tumors in live mice Human cancer cells were implanted (1×10^6) either subcutaneously, orthotopically, or intraosseously into 4 to 6 week old athymic nude mice (National Cancer Institute, Frederick, Md.) according to our previously published procedures (26, 27). All animal studies were conducted under the Emory University Animal Care and Use Committee guidelines. […] Whole body optical imaging was taken at 24 h using a Kodak Imaging Station 4000 MM (New Haven, Conn.) equipped with fluorescent filter sets (excitation/emission, 800/850 nm). The field of view (FOV) was 120 mm in diameter. The frequency rate for NIR excitation light was 2 mW/cm^2. The camera settings included maximal gain, 2×2 binning, 1024×1024 pixel resolution, and an exposure time of 5 sec. In some instances, live mice were also imaged by an Olympus OV100 Whole Mouse Imaging System (excitation 762 nm; emission 800 nm) (Olympus Corp., Tokyo, Japan), containing a MT-20 light source (Olympus Biosystems, Planegg, Germany) and DP70 CCD camera (Olympus). Prior to imaging, mice were anesthetized with ketamine (75 mg/kg). During imaging, mice were maintained in an anesthetized state.
# Human renal cancer cells (ACHN and SN12C) were implanted (1×10^6) subcutaneously and intraosseously into 4 to 6 week old athymic nude mice, respectively. And, we also implanted Caki-1 cells into the renal capsule of athymic nude mice to establish subrenal capsule xenografts of renal cancer as previously described.^70 When tumor sizes reached between 1-6 mm in diameter, as assessed by X-ray or by palpation, mice were […] Whole body optical imaging was taken at 24 h using a Kodak Imaging Station Imaging System 4000 MM (New Haven, Conn.) equipped with fluorescent filter sets (excitation/emission, 800/850 nm). The field of view (FOV) was 120 mm in diameter. The frequency rate for NIR excitation light was 2 mW/cm^2. The camera settings included maximal gain, 2×2 binning, 1024×1024 pixel resolution, and an exposure time of 5 sec. After whole body NIR imaging, the dissected organs and tumors were subjected to ex vivo imaging. Prior to imaging, mice were anesthetized with ketamine (75 mg/kg). During imaging, mice were maintained in an anesthetized state.
# [4] = Dye distribution and clearance in normal mouse tissues; assay type: in vivo
# Source text: One mouse was sacrificed at 96 hrs after IR-780 injection through tail vein, and isolated tissues and organs excised from mice were cut into frozen slides and were imaged under confocal microscope.
# To assess tissue distribution of these dyes, athymic mice without tumor implantation were sacrificed at 0, 6 and 80 hrs (N=3 each) after i.v. injection of IR-783 dye at a dose of 10 nmol/20 g. Dissected organs were subjected to NIR imaging by a Kodak Imaging Station 4000 MM. In another study the mice bearing orthotopic ARCaPM tumors were subjected to NIR imaging at 0.5, 24, 48, 72 and 96 hrs after IR-783 i.v. administration at a dose of 10 nmol/20 g. In some cases, we also assessed the biodistribution of NIR dye by a spectral method in tissues harvested from athymic mice bearing subcutaneous ARCaPM tumors (N=6). Tumors and normal host organs were homogenized in PBS, centrifuged at 15,000×g for 15 minutes to recover the supernatant fraction after the mice were injected i.p. with IR-783 at a dose of 10 nmol/20 g. The presence of the organic dyes (parental IR-783 and its metabolites) in tissues was estimated spectrophotometrically at an emission wavelength of 820 nm by a PTI Near Infrared Fluorometer QuantaMaster™ 50 (PTI, Birmingham, N.J.) equipped with a 75-watt xenon arc lamp under 500 to 1700 nm InGaAs detector using known concentrations of IR-783 as the standard (28). In other cases, tumor tissues harvested from mice were stored in formalin from 1 week to 3 months, and fluorescence images were obtained and compared.
# [5] = mice bearing subcutaneous ACHN tumors
molecule,measurement,setting,value
"CCCN1C(=CC=C2CCCC(C=CC3=[N+](CCC)c4ccccc4C3(C)C)=C2Cl)C(C)(C)c2ccccc21.[I-] [IR-780, 2-[2-[2-Chloro-3-[(1,3-dihydro-3,3-dimethyl-1-propyl-2H-indol-2-ylidene)ethylidene]-1-cyclohexen-1-yl]ethenyl]-3,3-dimethyl-1-propylindolium iodide]",body weight,"[1]; 0 day, 1X imaging dose",19.00 g
same,body weight,"[1]; 0 day, 10X imaging dose",20.71 g
same,body weight,"[1]; 0 day, 100X imaging dose",20.14 g
same,day after injection at which all mice were killed,[1]; 100× excess of the imaging dose,2 days
same,body weight,"[1]; 1 day, 1X imaging dose",19.02 g
same,body weight,"[1]; 1 day, 10X imaging dose",20.69 g
same,body weight,"[1]; 1 day, 100X imaging dose",0 g
same,body weight,"[1]; 2 day, 1X imaging dose",19.71 g
same,body weight,"[1]; 2 day, 10X imaging dose",20.70 g
same,body weight,"[1]; 2 day, 100X imaging dose",0 g
same,body weight,"[1]; 3 day, 1X imaging dose",20.01 g
same,body weight,"[1]; 3 day, 10X imaging dose",21.03 g
same,body weight,"[1]; 3 day, 100X imaging dose",0 g
same,body weight,"[1]; 4 day, 1X imaging dose",20.32 g
same,body weight,"[1]; 4 day, 10X imaging dose",21.24 g
same,body weight,"[1]; 4 day, 100X imaging dose",0 g
same,body weight,"[1]; 5 day, 1X imaging dose",20.56 g
same,body weight,"[1]; 5 day, 10X imaging dose",21.89 g
same,body weight,"[1]; 5 day, 100X imaging dose",0 g
same,body weight,"[1]; 6 day, 1X imaging dose",20.97 g
same,body weight,"[1]; 6 day, 10X imaging dose",22.00 g
same,body weight,"[1]; 6 day, 100X imaging dose",0 g
same,body weight,"[1]; 7 day, 1X imaging dose",21.81 g
same,body weight,"[1]; 7 day, 10X imaging dose",22.56 g
same,body weight,"[1]; 7 day, 100X imaging dose",0 g
same,body weight,"[1]; 14 day, 1X imaging dose",23.56 g
same,body weight,"[1]; 14 day, 10X imaging dose",24.00 g
same,body weight,"[1]; 14 day, 100X imaging dose",0 g
same,body weight,"[1]; 28 day, 1X imaging dose",24.44 g
same,body weight,"[1]; 28 day, 10X imaging dose",24.56 g
same,body weight,"[1]; 28 day, 100X imaging dose",0 g
same,dye uptake into cancer cells at 0° C.,[2]; data not shown,no dye uptake
same,uptake of dye by human cancer cell lines in culture,"[2]; 20 μM dye, 30 min",preferentially taken up and retained by cancer but not normal cells; also recorded: a wide range of cancer cells but not normal cells were taking up these dyes; also recorded: significant uptake
same,tumor imaging of intratibial ARCaPM tumors,[3]; 5 nmol dye through tail vein,clear tumor images can be detected
same,tumor imaging of subcutaneous xenografts,[3]; 5 nmol dye through tail vein,clear tumor images can be detected in all subcutaneous tumors
same,dye uptake and signal in human xenograft implants at various sites,[3],found in a broad spectrum of human xenograft implants
same,duration of dye uptake and retention in tumors after dye administration,[3],≤ 15 days
same,dye uptake in normal mouse tissues,"[4]; 96 hrs after injection through tail vein, frozen slides, confocal",all mouse tissues failed to uptake this organic dye
"2-[2-[2-Chloro-3-[2-[1,3-dihydro-3,3-dimethyl-1-(4-sulfobutyl)-2H-indol-2-ylidene]-ethylidene]-1-cyclohexen-1-yl]-ethenyl]-3,3-dimethyl-1-(4-sulfobutyl)-3H-indolium [IR-783]",body weight,"[1]; 0 day, 1X imaging dose",20.29 g
same,body weight,"[1]; 0 day, 10X imaging dose",20.57 g
same,body weight,"[1]; 0 day, 100X imaging dose",19.85 g
same,lethality in treated mice,"[1]; 100× imaging dose, 28 days",no lethality
same,body weight,"[1]; 1 day, 1X imaging dose",20.20 g
same,body weight,"[1]; 1 day, 10X imaging dose",20.61 g
same,body weight,"[1]; 1 day, 100X imaging dose",19.74 g
same,body weight,"[1]; 2 day, 1X imaging dose",20.23 g
same,body weight,"[1]; 2 day, 10X imaging dose",20.59 g
same,body weight,"[1]; 2 day, 100X imaging dose",20.01 g
same,body weight,"[1]; 3 day, 1X imaging dose",20.32 g
same,body weight,"[1]; 3 day, 10X imaging dose",20.98 g
same,body weight,"[1]; 3 day, 100X imaging dose",20.39 g
same,body weight,"[1]; 4 day, 1X imaging dose",20.34 g
same,body weight,"[1]; 4 day, 10X imaging dose",21.02 g
same,body weight,"[1]; 4 day, 100X imaging dose",20.43 g
same,body weight,"[1]; 5 day, 1X imaging dose",21.00 g
same,body weight,"[1]; 5 day, 10X imaging dose",21.34 g
same,body weight,"[1]; 5 day, 100X imaging dose",21.01 g
same,body weight,"[1]; 6 day, 1X imaging dose",21.87 g
same,body weight,"[1]; 6 day, 10X imaging dose",21.76 g
same,body weight,"[1]; 6 day, 100X imaging dose",21.23 g
same,body weight,"[1]; 7 day, 1X imaging dose",22.32 g
same,body weight,"[1]; 7 day, 10X imaging dose",22.54 g
same,body weight,"[1]; 7 day, 100X imaging dose",22.00 g
same,body weight,"[1]; 14 day, 1X imaging dose",23.91 g
same,body weight,"[1]; 14 day, 10X imaging dose",24.01 g
same,body weight,"[1]; 14 day, 100X imaging dose",23.76 g
same,body weight,"[1]; 28 day, 1X imaging dose",24.86 g
same,body weight,"[1]; 28 day, 10X imaging dose",24.87 g
same,body weight,"[1]; 28 day, 100X imaging dose",24.61 g
same,uptake of dye by human bladder cancer cell lines,[2],strong uptake
same,uptake of dye by human pancreatic cancer cell lines,[2],strong uptake
same,dye uptake into cancer cells at 0° C.,[2]; data not shown,no dye uptake and none
same,dye uptake into cancer cells at 37° C.,"[2]; 37° C., data not shown",high
same,uptake of dye by human renal cancer cells,"[2]; SN12C, ACHN, Caki-1, 20 μM dye, 30 min",significant uptake; also recorded: actively taking up
same,uptake of dye by human cancer cell lines in culture,"[2]; 20 μM dye, 30 min",preferentially taken up and retained by cancer but not normal cells; also recorded: a wide range of cancer cells but not normal cells were taking up these dyes; also recorded: retained in cancerous cells of human origin; also recorded: significant uptake
same,tumor imaging of subcutaneous xenografts,[3]; 5 nmol dye through tail vein,clear tumor images can be detected
same,time after dye at which optimal images of tumors and metastases are obtained,[3]; metastatic prostate tumors (ARCaP orthotopic) in mice,24 to 48 h
same,"signal in tumor specimens, ex vivo analysis",[3]; [5],higher signals in tumor specimens
same,"signals in other normal organs, ex vivo analysis",[3]; [5],very low signals
same,dye uptake by orthotopic ARCaPM tumors,[3]; orthotopic ARCaPM (ARCaP) tumors in mice,strong uptake; also recorded: active uptake; also recorded: dye uptake and retention seen in an ARCaPM orthotopic tumor
same,tumor signal in whole-body NIR imaging,"[3]; subcutaneous renal tumors (ACHN), Kodak System",signals could be clearly visualized in the tumors
same,dye uptake and signal in human xenograft implants at various sites,[3],found in a broad spectrum of human xenograft implants; also recorded: intense signals were clearly associated with the tumors; also recorded: both tumors were detected
same,signal at anatomical sites of implanted tumors,[3]; subrenal capsule (Caki-1) and intraosseous (SN12C) renal tumor xenografts,strong signals
same,duration of dye uptake and retention in tumors after dye administration,[3],up to 15 days
same,size of tumors that can be imaged,[3]; tumors in mice,approximately 1 mm^3
same,tumor weight that can be imaged,[3]; tumors in mice,approximately 1 mg
same,organs accumulating dye,"[4]; 6 hrs after i.v. 10 nmol/20 g, normal mice","accumulate in mouse liver, kidney, lung and heart"
same,dye in vital organs at 80 hrs,"[4]; 80 hrs after i.v. 10 nmol/20 g, normal mice",completely cleared
same,time by which dye was cleared from all mouse vital organs,"[4]; i.v. 10 nmol/20 g, normal mice",≤ 80 h
same,time period within which dye was cleared from normal organs,"[4]; liver, kidney, testis and seminal vesicles, live animals",≤ 96 h
